Legend:
Assay in all cases: 4-nitrophenol release at […] nm, initial rates
Format in all cases: biochemical
Conditions in all cases: 5 mM EPPS pH 8.0, 30 °C; ester 0–0.04 mM
WP_014900537.1 = system: WP_014900537.1
WP_089515094.1 = system: WP_089515094.1
WP_026140314.1 = system: WP_026140314.1

`CCC(=O)Oc1ccc([N+](=O)[O-])cc1` [p-NP propionate] gave a Km (WP_014900537.1) of 16.9 ± 1.6 µM, a Km (WP_089515094.1) of 23.5 ± 3.5 µM and a Km (WP_026140314.1) of 14.5 ± 1.1 µM.

Reference: publication PMC9599548, “EP-Pred: A Machine Learning Tool for Bioprospecting Promiscuous Ester Hydrolases” (Biomolecules, 2022)
